Test results published in US20090221640A1, “Novel Crystal Modifications” (ASTRAZENECA AB, priority 2006, published 2009).

Experiments:
[1] = Humidity sorption by gravimetrical vapour sorption (GVS); type: physicochemical
Experimental: The gravimetric responses of test samples to changes in humidity were investigated using either a SGA 100 (VTI Corporation) or a DVS 2 (Surface Measurement System) Gravimetrical Vapour Sorption (GVS) instrument with the following features: Dry to 90% RH and back in steps of, for example, 10% RH.
Equilibrium condition: <0.01 weight-% per 10 minutes (<0.001 weight-%/min)
Approximately 5 mg of the test sample was placed in the cup and evaluated.

[2] = Relative thermodynamic stability in suspension experiments (XRPD on precipitates); type: physicochemical
[3] = Thermal behaviour on heating (DSC and TGA); type: physicochemical; conditions: below 200° C.; neither solvent loss nor any other thermal event prior to melting
Experimental: The calorimetric response of a test sample to increasing temperature was investigated using a Q1000 Modulated Temperature Differential Scanning Calorimeter (MTDSC) (TA Instruments) using different methods, the main features being:
Normally modulated mode (“heat only”) with a ramp rate of 5° C./min (but also 1 and 20° C./min were used without modulation). The temperature range was from just below ambient to above 200° C.
Approximately 2 mg of the test sample was placed in an aluminium cups with a lid (no crimping).
The gravimetric response of test samples to increasing temperatures was investigated using a Q500 Thermal Gravimetric Analyser (TGA) (TA Instruments) using the following parameters:
Heating rate (normally): 5° C./min
Approximately 2 to 5 mg of the test sample was placed in the cup and heated to just above 200° C.

[4] = Solid-state storage stability (chemical and physical); type: physicochemical; conditions: 25° C./desiccated; 25° C./60% RH; 40° C./75% RH; examined after 2, 4, 8 and 12 weeks
Experimental: The solid-state stability of compound (I) Form G was studied under three sets of conditions: at 25° C./desiccated; at 25° C./60% RH; and at 40° C./75% RH. Samples were examined after 2, 4, 8 and 12 weeks and chemical and physical stability was evaluated.

[5] = molecular target: MMP12 (Homo sapiens, UniProt P39900); conditions: background statement, compound of WO 02/074767; cited from earlier work
Sequence of MMP12 (P39900 106-470): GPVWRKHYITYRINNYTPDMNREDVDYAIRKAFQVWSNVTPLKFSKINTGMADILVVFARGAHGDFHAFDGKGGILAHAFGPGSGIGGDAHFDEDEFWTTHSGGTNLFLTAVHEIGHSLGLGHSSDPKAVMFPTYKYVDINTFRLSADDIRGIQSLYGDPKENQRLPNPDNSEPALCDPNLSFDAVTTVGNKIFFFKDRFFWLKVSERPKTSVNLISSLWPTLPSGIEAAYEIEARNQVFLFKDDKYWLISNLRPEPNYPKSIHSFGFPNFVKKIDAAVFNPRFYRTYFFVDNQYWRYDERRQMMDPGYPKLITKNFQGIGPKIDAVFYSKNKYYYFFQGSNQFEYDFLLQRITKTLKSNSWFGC

In the case of C[C@]1(CS(=O)(=O)N2CCC(Oc3ccc(Cl)cn3)CC2)NC(=O)NC1=O [compound (I) Form G, (S)-5-[4-(5-Chloro-pyridin-2-yloxy)-piperidine-1-sulfonylmethyl]-5-methyl-imidazolidine-2,4-dione Form G], the humidity uptake ([1]; at 80% RH, GVS) is reported as < 0.05%, the hygroscopicity classification ([1]; criteria defined in the European Pharmacopoeia) is reported as “non-hygroscopic” and the “relative thermodynamic stability among the seven crystalline modifications” value ([2]; temperature range investigated (5 to 40° C.)) is reported as “thermodynamically most stable”. For the same compound, the “thermal stability (DSC and TGA traces)” value [3] was “thermally stable” and the “solid-state chemical and physical stability” value [4] was “chemically and physically stable”.
In the case of C[C@]1(CS(=O)(=O)N2CCC(Oc3ccc(Cl)cn3)CC2)NC(=O)NC1=O [Form A, (5S)-5-[4-(5-chloro-pyridin-2-yloxy)-piperidine-1-sulfonylmethyl]-5-methyl-imidazolidine-2,4-dione], the “conversion of crystal form in suspension (XRPD)” value ([2]; suspensions in organic solvents (ethanol, methanol, 1-propanol, 2-propanol, acetone or ethyl acetate)) is reported as “complete conversion into Form G”.
In the case of C[C@]1(CS(=O)(=O)N2CCC(Oc3ccc(Cl)cn3)CC2)NC(=O)NC1=O [Compound (I), (5S)-5-[4-(5-chloro-pyridin-2-yloxy)-piperidine-1-sulfonylmethyl]-5-methyl-imidazolidine-2,4-dione], the “MMP12 inhibition (in words)” value [5] is given as “potent inhibitor of MMP12”.
